Entries after “also recorded” stand apart in the source; their conditions may differ.
How the values were obtained:
[1] = test system: activated T cells; assay type: cell-based, mice; details: culture of activated T cells with agent
[2] = test system: activated T cells; parameters: species or system mice; details: mouse
[3] = test system: activated T cells (P14); assay type: cell-based, mice; details: for killing of activated T cells in vitro: agent itself, overnight culture
[4] = test system: experimental autoimmune encephalitis; details: in vivo
[5] = test system: HLH; details: HLH patients, etoposide-based therapy, increased from approximately 0%; cited from earlier work
[6] = test system: reactivated memory T cells; test: Depletion of memory T cells reactivated in vivo with liposomal GP33 peptide in WT mice; details: etoposide 100 mg/kg/dose x2, or etoposide 25 mg/kg/dose + nutlin 50 mg/kg x4
[7] = test system: LCMV-infected prf−/− mice; details: mouse, in vivo

| SMILES | potentiation of etoposide killing of activated T cells in vitro [3] | killing of activated T cells in vitro [3] | further results |
| --- | --- | --- | --- |
| NC(=O)Nc1cc(-c2cccc(F)c2)sc1C(=O)N[C@H]1CCCNC1 [AZD7762] | potentiate etoposide killing of activated T cells in vitro | kill activated T cells in vitro; also recorded: selectively kill activated T cells | DNA damage (gammaH2AX) in activated T cells in vitro [1]: leads to accumulation of spontaneous DNA damage; also recorded: led to increasing DNA damage; potentiation of low dose etoposide for depletion of activated T cells in vivo [2]: strongly synergizes with etoposide in vivo |
| NC(=O)C1CCCc2c1[nH]c1ccc(Cl)cc21 (stereo not drawn) [Ex527] | enhance etoposide killing of activated T cells in vitro |  |  |
| C=CCn1c(=O)c2cnc(Nc3ccc(N4CCN(C)CC4)cc3)nc2n1-c1cccc(C(C)(C)O)n1 [MK-1775] | potentiate etoposide killing of activated T cells in vitro | selectively kill activated T cells |  |
| O=C1C(Cl)=C(N2CCOCC2)C(=O)N1c1ccc(Cl)c(Cl)c1 [Ri-1, 3-chloro-1-(3,4-dichlorophenyl)-4-morpholino-1H-pyrrole-2,5-dione] | substantial synergy with etoposide in vitro | kill activated T cells in vitro |  |
| CCOc1cc(/C=C2/C(=O)N(c3ccccc3)N=C2C)cc(Cl)c1OCC(=O)OC [Sj-172550] | enhance etoposide killing of activated T cells in vitro |  |  |
| COc1cc([C@@H]2c3cc4c(cc3[C@@H](O[C@@H]3O[C@@H]5CO[C@@H](C)O[C@H]5[C@H](O)[C@H]3O)[C@H]3COC(=O)[C@H]23)OCO4)cc(OC)c1O [etoposide] |  |  | therapeutic effect in experimental autoimmune encephalitis [4]: highly therapeutic; long-term survival [5]: 55%; depletion of reactivated memory T cells in vivo [6]: ablated; inflammatory cytokines/disease-specific inflammatory markers [7]: decreased inflammatory cytokines/disease-specific inflammatory markers; pancytopenia [7]: alleviated pancytopenia; survival / rescue from HLH-like disease [7]: allowed survival; also recorded: rescues LCMV-infected prf−/− mice from HLH-like disease |
| COc1ccc(C2=NC(c3ccc(Cl)cc3)C(c3ccc(Cl)cc3)N2C(=O)N2CCNC(=O)C2)c(OC(C)C)c1 (stereo not drawn) [nutlin] | dramatically shifts the etoposide:death, dose:response curve |  | potentiation of low dose etoposide for depletion of activated T cells in vivo [2]: potentiates etoposide immunomodulation in vivo |

Source: patent US20160022720A1, “COMPOSITIONS AND METHODS FOR TREATING DISEASE STATES ASSOCIATED WITH ACTIVATED T CELLS AND/OR B CELLS” (priority 2013, published 2016)
